{
  "source": "patent US7208281B2",
  "about": "(priority 2001, dated 2007)",
  "key": {"[1]": {"molecular_target": "PrPC (Homo sapiens, UniProt P04156)", "details": "microtiter plate coated with fibronectin"}, "[2]": {"system": "PrPsc"}, "[3]": {"system": "PrPsc", "remark": "listed apart in the source"}, "[4]": {"molecular_target": "PrPC (Bos taurus, UniProt P10279)", "sequence (P10279 25-241 limits assumed)": "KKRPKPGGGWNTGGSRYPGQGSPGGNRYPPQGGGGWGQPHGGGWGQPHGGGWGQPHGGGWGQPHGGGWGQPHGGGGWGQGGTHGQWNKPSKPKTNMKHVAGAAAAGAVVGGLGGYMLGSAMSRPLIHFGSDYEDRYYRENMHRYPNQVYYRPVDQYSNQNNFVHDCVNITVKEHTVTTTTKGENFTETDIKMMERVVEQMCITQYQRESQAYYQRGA", "details": "fibronectin coupled with europium nanobeads, incubated with sample"}, "[5]": {"system": "prions", "details": "cited from earlier work"}, "[6]": {"system": "PrPsc", "details": "cited from earlier work"}},
  "note": "Like-named read-outs stand apart in the source and are kept apart here.",
  "data": [
    {"substance": "fibronectin", "values": [
      {"measurement": "adherence of normal PrP (PrPc)", "setting": "[1]", "result": "does not"},
      {"measurement": "adherence of pathological PrP (PrPsc)", "setting": "[2]", "result": "adheres"},
      {"measurement": "adherence of pathological PrP (PrPsc)", "setting": "[3]", "result": "adheres"},
      {"measurement": "adherence of normal PrP (PrPc)", "setting": "[4]", "result": "does not"}
    ]},
    {"substance": "poly-b-xylose-2,3-disulphonate [Pentosan]", "values": [
      {"measurement": "inhibition of the production of prions", "setting": "[5]", "result": "inhibits the production of prions most strongly"}
    ]},
    {"substance": "plasminogen", "values": [
      {"measurement": "binding of PrPsc", "setting": "[6]", "result": "binding specifically"}
    ]}
  ]
}
